Reference: ChEMBL document CHEMBL1155088, “A new sesquiterpene lactone from the roots of Saussurea lappa: structure-anticancer activity study” (Bioorg Med Chem Lett, 2008)
≈ marks a conversion by molar mass, not a printed value. Calls of active or inactive are those of the source. The calls are words filed in the database; no cut-off is given here.

What was measured:
Type in all cases: functional, cell-based
MCF7 = assay: Cytotoxicity against human MCF7 cells after 48 hrs by MTT assay; conditions: MCF7, 48 h
A549 = assay: Cytotoxicity against human A549 cells after 48 hrs by MTT assay
COLO 205 = assay: Cytotoxicity against human COLO205 cells after 48 hrs by MTT assay; conditions: for IC50: COLO 205, 48 h
A-431 = assay: Cytotoxicity against human A431 cells after 48 hrs by MTT assay

| SMILES | IC50 (MCF7) [µg/mL] | Activity (A549) | IC50 (COLO 205) [µg/mL] | Activity (A-431) | IC50 (A549; A549, 48 h) [µg/mL] | IC50 (A-431; A-431, 48 h) [µg/mL] | Activity (COLO 205) |
| --- | --- | --- | --- | --- | --- | --- | --- |
| C=C1CCC[C@]2(C)CC[C@@H]3[C@H](OC(=O)[C@H]3COC)[C@@H]12 | 88.5 (≈ 335 µM) | inactive | 110 (≈ 415 µM) | inactive | – | – | – |
| C/C1=C\[C@H]2OC(=O)[C@@H](C)[C@@H]2CC/C(C)=C/CC1 [DIHYDRO COSTUNOLIDE] | 57.9 (≈ 247 µM) | inactive | 134 (≈ 572 µM) | inactive | – | – | – |
| C=C1C(=O)O[C@@H]2/C=C(\C)CCC[C@H](C)CC[C@H]12 [ISODIHYDROCOSTUNOLIDE] | 35 (≈ 150 µM) | – | 27 (≈ 115 µM) | – | 125 (≈ 533 µM) | 107 (≈ 457 µM) | – |
| COC[C@@H]1C(=O)O[C@@H]2/C=C(\C)CC/C=C(\C)CC[C@@H]12 | 75 (≈ 284 µM) | inactive | 220 (≈ 832 µM) | inactive | – | – | – |
| COC[C@@H]1C(=O)O[C@H]2[C@H]1CC[C@@]1(C)CCCC3(OCOO3)[C@H]21 (some centres undefined) | 180 (≈ 577 µM) | inactive | – | inactive | – | – | inactive |
| COC[C@@H]1C(=O)O[C@H]2[C@H]1CC[C@@]1(C)CCCC(=O)[C@H]21 | 103 (≈ 388 µM) | inactive | – | inactive | – | – | inactive |
